Non-standard residues stand in square brackets, D forms with d. pGlu = O=C1CC[C@@H](C(=O)O)N1

Experimental findings from patent publication US20190248834A1, “ENDOMORPHIN-2, TETRAPEPTIDE DERIVATIVES THEREOF, AND USES THEREOF” (priority 2016, published 2019) are described below.

What all share (type): in vivo, human
One experiment has as its system severe migraine. The experiment is described as follows: Example 12: analgesic effect on severe migraine headache, topical. Particulars: 1% (w/v) in WEP442, topical. As to the method: One day, at approximately 8 AM, visual aura and pain in the frontal scalp, forehead and frontal sinuses began and became very severe within 5-10 minutes. Thereafter, the subject topically applied a composition containing 1% (w/v) N-Ac-Tyr-Pro-Phe-Phe-NH2(SEQ ID NO: 23) in WEP442 to the involved area. […] Three (3) days later they remained free of any migraine headache and symptoms.

The subject of experiment [1] is jammed middle finger, pain and swelling. As to the kind of experiment: Example 15: analgesic effect on injured fingers, topical. Particulars: 1% (w/v) in WEP442, topical. From the text:
A subject, jammed their middle finger causing severe pain and swelling (inflammation). The subject topically applied a composition containing 1% (w/v) N-Ac-Tyr-Pro-Phe-Phe-NH2 ([…]) in WEP442 to the affected finger.

Experiment [2] relates to psoriatic arthritis of fingers. As to the kind of experiment: Example 19: analgesic effect on psoriatic arthritis of fingers, topical. As to the method:
A subject had extensive plaque psoriasis and painful arthritis of the interphalangeal joints of both index fingers, left thumb and left 5th finger. The pain was compromising their work performance as an esthetician. […] Pain relief lasted for about 6 hours.

The next experiment has as its system hallux valgus (bunion). The experiment is described as follows: Example 26: analgesic effect on painful inflammation of hallux valgus, topical. From the text: A subject had hallux valgus of the right 1st metatarsal-proximal phalangeal joint for a duration of 5-6 years. Pain in the joint was episodic and associated with inflammation. […] A second application of the solution was made that evening, even though there was no pain. […] Such improvement lasted over the next 2 weeks.

The subject of experiment [3] is dental pain after filling. As to the kind of experiment: Example 27: analgesic effect on dental pain, applied to tooth and gum. On the procedure: A subject, experienced substantial pain in an upper left retro-molar that started 3 hours after having a dental filling procedure done on the tooth. The pain became more intense over the ensuing hours, at which time they applied to the tooth and gum using a cotton tipped applicator a composition containing 1% (w/v) of N-Ac-Tyr-Pro-Phe-Phe-NH2 (SEQ ID NO: 23) in WEP442. […] Re-application of the composition provided the same relief for the same duration.

The test system of experiment [4] is severe nauseating headache. The experiment is described as follows: Example 60: analgesic effect on headache due to inhalation of exhaust fumes, topical. To be noted: 0.5% (w/v) in WEP442, topical. The text has this: A construction worker, suffered a severe nauseating headache on a day when, for about an hour, they were exposed to exhaust fumes from a gasoline motor driven dust blower early in the day. The headache persisted all day and into the evening.

Experiment [5] has as its system mechanically induced skin pain. As to the kind of experiment: Example 91: experimentally induced skin pain (needle roller), topical. To be noted: 1% (w/v) in WEP442, topical before and after wounding. From the text: A subject, rolled onto their left forearm with forceful pressure a roller having many tiny stainless steel needles 1 mm in length, which penetrated through the epidermis causing sharp pain as well as punctate bleeding.

The next experiment has as its system painful tendonitis. The experiment is described as follows: Example 50: topical treatment of painful tendonitis of right wrist and right thumb. Particulars: 1% (w/v) in WEP442, topical. From the text:
A subject with painful tendonitis after playing tennis topically applied a composition containing 1% (w/v) of N-Pg-Tyr-Pro-Phe-Phe-NH2 (SEQ ID NO: 44) in WEP442 to the right thumb and to the entire wrist.

Experiment [6] relates to chronic osteoarthritis of the knees. The experiment is described as follows: Example 53: comparative analgesic efficacy in topical treatment of knee osteoarthritis. Particulars: 1% (w/v) in WEP442, maintenance treatment twice daily. On the procedure:
A subject with chronic osteoarthritis of the knees participated in this study. Each tetrapeptide derivative was dissolved in WEP442 to make a 1% (w/v) solution. Early in the morning, the solution was applied to a knee, which was immediately wrapped in plastic film from a roll 5 inches wide. The film wrap was left in place for about 7-8 hours, and then it was removed. Such application was repeated at bedtime and removed several hours later during the night. Each 1% (w/v) solution of tetrapeptide derivative was so applied for 2 days and efficacy was evaluated by the subject. No topical treatment was made during an ensuing interval of 2-3 days, at which time treatment with a 1% (w/v) solution of another derivative was initiated and carried out as described above. In total, six tetrapeptide derivatives were evaluated for analgesic efficacy.
The following tetrapeptide derivative was judged to provide 2+ to 3+ pain relief by clinical evaluation: N-Pa-Tyr-Pro-Phe-Phe-NH2(SEQ ID NO: 64).
After the above evaluation period, maintenance treatment was done with a composition containing 1% (w/v) of N-Pg-Tyr-Pro-Phe-Phe-NH2 (SEQ ID NO: 44) in WEP442 applied twice daily.

A further experiment relates to severe headache. As to the kind of experiment: Example 59: analgesic effect on headache of acupuncturist, topical. Particulars: 0.6% (w/v) in WEP442, topical. From the text: A person acupuncturist, on a day while practicing their specialty, developed a severe headache that was not relieved by administering acupuncture procedures themself.
In experiment [7] the test system is post-operative knee soreness. The experiment is described as follows: Example 70: analgesic effect on post-operative tenderness and soreness of knee, topical. To be noted: 0.6% (w/v) in WEP442, topical. The text has this:
A person underwent surgical repair of a bulging meniscus of the right knee, after which there was substantial tenderness and soreness, particularly so upon their walking, which they were advised to do a few hours daily during the recovery period. Skin glue had been used for wound closure, which allowed for topical applications of a composition containing 0.6% (w/v) of N-Pg-Tyr-Pro-Phe-Phe-NH2 (SEQ ID NO: 44) in WEP442 to the entire knee including 5 surgical wound sites. […] Repeated topical applications provided freedom of movement throughout the day with negligible discomfort.

In another experiment the test system is migraine. The experiment is described as follows: Example 80: analgesic effect on pain and nausea from migraine headache, topical. Particulars: 0.5% (w/v) in WEP442, topical at onset of symptoms. From the text:
A subject with a history of recurrent attacks of migraine, was provided a solution composition containing 0.5% (w/v) of N-Pg-Tyr-Pro-Phe-Phe-NH2 (SEQ ID NO: 44) in WEP442 and a solution composition containing 0.5% (w/v) of N-Ac-Tyr-Pro-Phe-Phe-NHNH2 (SEQ ID NO: 31) in WEP442. […] Sensations of nausea that might have lingered went away after several minutes following a second topical application.

Take `CC(=O)N[C@@H](Cc1ccc(O)cc1)C(=O)N1CCC[C@H]1C(=O)N[C@@H](Cc1ccccc1)C(=O)N[C@@H](Cc1ccccc1)C(N)=O` [N-Ac-Tyr-Pro-Phe-Phe-NH2]: the “relief of migraine pain and all other symptoms” value in the experiment on severe migraine is “suddenly disappeared completely”. In addition, in the experiment with severe migraine, the “time free of migraine headache and symptoms” value is given as ≥ 3 days. Besides, the “time to pain relief” value with severe migraine was 6 to 7 min; in [2] (1% (w/v) in WEP442, topical) it was ≤ 30 s; with hallux valgus (bunion) (1% (w/v) in WEP442, topical) it was ≤ 15 min; in experiment [3] (1% (w/v) in WEP442) it was ≤ 1 min; in experiment [4], ≤ 2 min. Moreover, the “relief of pain and swelling” value in experiment [1] was “pain and much of the swelling disappeared”. For the same molecule, the time to relief entry in [1] is given as “almost immediately”. Also, the “duration of pain relief” value in experiment [2] (1% (w/v) in WEP442, topical) was “about 6 hours”; in experiment [3] (1% (w/v) in WEP442) it was “about 3 hours”. Moreover, the pain relief result in experiment [2] (1% (w/v) in WEP442, topical each day for one month) was “all arthritic pain of the finger was gone”; in the experiment on hallux valgus (bunion) (1% (w/v) in WEP442, topical), “all pain was gone”; in [3] (1% (w/v) in WEP442, applied to tooth and gum), “pain ceased completely”; in [4], “completely relieved the headache”. In the experiment with hallux valgus (bunion) (1% (w/v) in WEP442, morning after second application), the “erythema, swelling and pain” value is “the erythema was gone, the swelling had subsided, and there was no pain”. In the experiment with hallux valgus (bunion) (1% (w/v) in WEP442, topical), this molecule registered a duration of improvement of 2 weeks. Also, in experiment [5], the “effect on sharp punctate pain” value was “did not prevent nor relieve the sharp punctate pain”.
For the molecule “N-Pg-Tyr-Pro-Phe-Phe-NH2 ([pGlu]YPFF-NH2; SMILES NC(=O)[C@H](Cc1ccccc1)NC(=O)[C@H](Cc1ccccc1)NC(=O)[C@@H]1CCCN1C(=O)[C@H](Cc1ccc(O)cc1)NC(=O)[C@@H]1CCC(=O)N1)”, the pain relief entry is “all pain and discomfort from any hand movements were gone” in the experiment with painful tendonitis; “completely relieved their headache” in the experiment with severe headache; “rapid, almost complete, relief of pain sensations” in [7]; “complete relief of pain” in the experiment with migraine. In addition, the “time to pain relief” value with painful tendonitis was 5 to 10 min; in the experiment with severe headache it was ≤ 2 min. Besides, in the experiment on painful tendonitis, the “time without return of pain (follow up period)” value was ≥ 24 h. The “knee pain compared to several months earlier” value in [6] was “the knee pain was substantially less”. In experiment [7], the “duration of pain relief” value lay in the range of 2 to 3 h.
